Measurements published in BindingDB's records for PubMed 34236862 (Lodz University of Technology, 2021).
pIC50: −log10 of the molar value.

Experiment: Inhibition of Rac1 GTPase in human MDA-MB-231 cells assessed as inhibition of cell proliferation treated for 72 hrs by MTT assay

Cc1cc(C)cc(NC(=N)Nc2ccccc2C(F)(F)F)c1
pIC50: 4.68
